Values of other authors as cited in patent US10984362B2, “Methods for post-harvest crop pest management” (priority 2017, dated 2021).
Read-outs that look alike come from different tables or passages of the source.

Experiments:
[1] = test system: tobacco moth and susceptible cigarette beetle; settings: 100% control of all development stages
[2] = test system: resistant cigarette beetle; settings: 100% control of all development stages
[3] = tobacco temperature 16-20 °C (61-68 °F), 300 ppm phosphine at the bale/case centre

P [Phosphine, phosphine]
Minimum Exposure Time [1, 3]: 6 days
Minimum Exposure Time ([1]; tobacco temperature >20 °C (>68 °F), 200 ppm phosphine at the bale/case centre): 4 days
Minimum Exposure Time [2, 3]: 12 days
Minimum Exposure Time ([2]; tobacco temperature 20-25 °C (68-77 °F), 300 ppm phosphine at the bale/case centre): 12 days
Minimum Exposure Time ([2]; tobacco temperature 20-25 °C (68-77 °F), 700 ppm phosphine at the bale/case centre): 10 days
Minimum Exposure Time ([2]; tobacco temperature >25 °C (>77 °F), 300 ppm phosphine at the bale/case centre): 12 days
Minimum Exposure Time ([2]; tobacco temperature >25 °C (>77 °F), 600 ppm phosphine at the bale/case centre): 6 days
